The values that follow come from patent US20240246969A1, “HETEROCYCLIC DERIVATIVES AS CAMKK2 INHIBITORS” (Bristol-Myers Squibb Company, priority 2021, published 2024).

Where two headings read alike, the source gives them in different places.

One data set in a line: PPB, human (h). The class given is in vitro ADME. The note with it: plasma, second value of (m, h).
Data set [1] in a line: Microsomes stability, mouse (m). The class given is in vitro ADME. The note with it: first value of (m, h).
Another data set deals with CEREP. The experiment in a line: CEREP panel. The note with it: @ 10 uM.
The next data set is described as follows: PK. The note with it: in vivo; read-out: PK % F.
The next data set has as its system pAMPK in A427. As to the kind of experiment: A427 pAMPK MOA assay. The class given is cell-based. Particulars: Homo sapiens, A-427.
The target in a further data set is 2C9 (Homo sapiens, UniProt P11712). As to the kind of experiment: CYP450 2C9 inhibition. The format is in vitro ADME.
A further data set in a line: PPB, mouse (m). The format is in vitro ADME. Particulars: plasma, first value of (m, h).
A short description of data set [2]: Microsomes stability, human (h). The format is in vitro ADME. Particulars: second value of (m, h).
A further data set concerns CYP450. The experiment in a line: CYP450 inhibition. The class given is in vitro ADME. Particulars: all isoforms except 2C9.
The target in another data set is CaMKK1 (Homo sapiens, UniProt Q8N5S9). The experiment in a line: CaMKK1 IC50. The format is binding.
Another data set concerns the target CaMKK2 (Homo sapiens, UniProt Q96RR4). The experiment in a line: CaMKK2 binding assay (LanthaScreen TR-FRET). How it is done: The ability of test compounds to bind and inhibit the activity of CaMKK2 were determined using a binding assay using LanthaScreent (Thermofisher) detection reagents in a 384-well plate format using the following assay buffer: 50 mM HEPES (pH7.5), 10 mM MgCl2, 1 mM EGTA, and 0.01% Brij-35.
A 10-point serial dilution of inhibitor compound in 0.5% DMSO was added to each well of the plate. The final assay volume in well was 15 uL. […] A ratio was calculated from the 2 readouts and fitted to a 4-parameter fit to determine the binding IC50.

Data set [3] relates to phosphorylation of CaMKK2 substrate AMPK at Thr172 in A549 lung carcinoma cells. The experiment in a line: Cell-based phosphorylation assay (Phospho-AMPK Thr172 HTRF). The note with it: Homo sapiens; for EC50: A549, read-out: A549 pAMPK MOA EC50; for IC50: A549 cells, compounds 4 hours, 3 uM Calcium Ionophore 30 minutes, read-out: Cellular IC50 Phosphorylation. How it is done: Cellular CaMKK2 inhibition by compounds was measured by monitoring the phosphorylation of CaMKK2 substrate AMPK at Thr172 in A549 lung carcinoma cells (ATCC) using CISBIO Phospho-AMPK (Thr172) HTRF kit. A549 cells were plated in 96 well plates at 8000 cells/well in DMEM+10% FBS+1× pen/step+1×NEAA and incubated at 37° C. overnight in a CO2 incubator. Cells were then treated with compounds for 4 hours. After cells were stimulated by 3 uM Calcium Ionophore (Sigma) at 37° C. for 30 minutes, cells were washed and then lysed with cell lysis buffer (CisBio) for 30 minutes. […] Plates were incubated overnight and then read using HTRF mode by BMG PHERAstarFS.

A further data set deals with KSP (72) kinases. Details: dose or concentration left out as unconfirmed. Particulars: of 72 kinases.
The test system of data set [4] is A549 lung carcinoma cells. As to the kind of experiment: Cell proliferation assay (CellTiter 96 Aqueous). The format is cell-based. The note with it: Homo sapiens, compounds 48 hours, read-out: Cellular IC50 Proliferation. How it is done: Proliferation was measured using CellTiter 96 Aqueous Non-Radioactive Cell Proliferation Assay Kit (Promega), which determines the number of viable cells in culture based on quantitation of dehydrogenase enzymes, as an indicator of metabolically active cells. A549 lung carcinoma cells were seeded at 2,000 cells/well in a 96-well tissue culture treated plate in DMEM+10% FBS+1× pen/step+1×NEAA and incubated at 37° C. overnight in a CO2 incubator. Cells were treated with compounds for 48 hours. Then viability was measured using CellTiter 96 Aqueous Non-Radioactive Cell Proliferation Assay Kit (Promega). Detection was performed using Biotek Cytation 5 Cell Imaging Multi Mode plate reader.

Chain of CaMKK1 (Q8N5S9 whole entry, species assumed): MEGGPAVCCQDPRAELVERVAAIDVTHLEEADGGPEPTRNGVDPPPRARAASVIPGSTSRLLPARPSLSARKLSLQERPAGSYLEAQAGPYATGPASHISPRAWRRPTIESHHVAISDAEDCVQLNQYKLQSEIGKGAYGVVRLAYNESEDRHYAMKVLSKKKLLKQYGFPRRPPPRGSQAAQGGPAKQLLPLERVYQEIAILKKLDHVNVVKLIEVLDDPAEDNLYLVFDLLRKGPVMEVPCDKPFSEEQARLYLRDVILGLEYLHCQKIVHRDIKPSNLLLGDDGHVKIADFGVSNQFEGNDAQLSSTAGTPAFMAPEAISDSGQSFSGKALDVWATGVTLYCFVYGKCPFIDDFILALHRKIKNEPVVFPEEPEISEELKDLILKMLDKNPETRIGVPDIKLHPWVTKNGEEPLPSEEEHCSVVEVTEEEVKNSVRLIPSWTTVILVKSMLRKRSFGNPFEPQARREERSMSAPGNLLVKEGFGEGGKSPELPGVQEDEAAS
Chain of CaMKK2 (Q96RR4 whole entry): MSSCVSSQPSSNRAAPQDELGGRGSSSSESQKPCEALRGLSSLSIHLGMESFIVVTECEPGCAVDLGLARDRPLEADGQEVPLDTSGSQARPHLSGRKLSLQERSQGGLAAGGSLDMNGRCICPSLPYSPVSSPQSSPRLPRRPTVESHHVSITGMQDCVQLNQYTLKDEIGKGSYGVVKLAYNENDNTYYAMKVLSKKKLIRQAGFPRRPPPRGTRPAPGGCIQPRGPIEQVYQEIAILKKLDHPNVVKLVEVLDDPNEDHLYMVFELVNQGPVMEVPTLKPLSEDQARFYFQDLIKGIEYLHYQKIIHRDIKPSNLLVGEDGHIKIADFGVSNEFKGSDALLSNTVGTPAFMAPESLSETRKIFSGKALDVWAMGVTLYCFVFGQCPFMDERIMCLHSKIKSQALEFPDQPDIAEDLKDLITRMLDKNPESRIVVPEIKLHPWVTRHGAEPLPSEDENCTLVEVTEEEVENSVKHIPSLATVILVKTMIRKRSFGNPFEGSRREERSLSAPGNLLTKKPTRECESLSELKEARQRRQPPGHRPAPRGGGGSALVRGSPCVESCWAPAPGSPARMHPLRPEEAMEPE
Chain of 2C9 (P11712 whole entry): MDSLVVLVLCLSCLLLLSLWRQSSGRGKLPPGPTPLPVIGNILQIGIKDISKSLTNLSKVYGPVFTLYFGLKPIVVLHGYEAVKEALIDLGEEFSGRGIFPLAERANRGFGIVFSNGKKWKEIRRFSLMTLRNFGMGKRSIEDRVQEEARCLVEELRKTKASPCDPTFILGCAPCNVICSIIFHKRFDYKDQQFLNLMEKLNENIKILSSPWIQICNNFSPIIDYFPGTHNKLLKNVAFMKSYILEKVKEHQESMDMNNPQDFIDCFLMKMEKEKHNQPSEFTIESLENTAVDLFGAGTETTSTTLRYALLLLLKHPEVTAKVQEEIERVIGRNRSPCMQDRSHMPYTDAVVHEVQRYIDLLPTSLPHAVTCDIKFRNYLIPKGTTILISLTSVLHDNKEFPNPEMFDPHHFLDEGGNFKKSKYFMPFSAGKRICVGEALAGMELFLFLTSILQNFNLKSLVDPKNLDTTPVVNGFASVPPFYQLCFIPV

Turning to `CCOc1ccc2c(-c3ccc(C(=O)O)c(C4CCCC4)c3)ncnc2c1` [Example 5.1, 2-cyclopentyl-4-(7-ethoxyquinazolin-4-yl)benzoic acid], the fraction unbound in “PPB, human (h)” turned out to be 0.01. Moreover, in data set [1], the “Microsomes (m) Stability60” value was “Stability60: 96, %” and the “Microsomes (m) UGT” value was 79%. For the same molecule, in the data set with CEREP, the CEREP result was “no inhibition >50%”. The bioavailability in the data set “PK” amounted to 80%. Also, the response in the data set on pAMPK in A427 was half-maximal at 74 nM (EC50). At 2C9, the “CYP450 2C9” value was 2C9 (4 mM). The molecule further had a free fraction (fraction unbound) in the data set “PPB, mouse (m)” of 0.015. Further, in [2], the “Microsomes (h) Stability60” value amounted to 100% and the “Microsomes (h) UGT” value was determined as 89%. The same molecule returned a CYP450 with CYP450 greater than 30 µM.

In the case of `CCOc1cc(F)c2c(-c3ccc(C(=O)O)c(C4CCCC4)c3)ncnc2c1` [Example 5.2, 2-cyclopentyl-4-(7-ethoxy-5-fluoroquinazolin-4-yl)benzoic acid], the IC50 at CaMKK1 came to 12 nM.

For the molecule `CCOc1ccc2c(-c3ccc(C(=O)O)c(C(C)C)c3)c(F)cnc2c1` [Example 5.4, 4-(7-ethoxy-3-fluoroquinolin-4-yl)-2-isopropylbenzoic acid], the IC50 at CaMKK2 (Table 8) was 1.1 nM; against CaMKK1, 1.7 nM. In addition, the EC50 in data set [3] worked out at 79 nM. For the same molecule, in the data set with KSP (72) kinases, the “Kinase Selectivity KSP (72)” value is listed as 6 of 72 @.

Take `O=C(O)c1ccc(-c2ccnn3cc(-c4ccccc4)cc23)cc1C1CCCC1` [Example 4.1, 2-Cyclopentyl-4-(6-phenylpyrrolo[1,2-b]pyridazin-4-yl)benzoic Acid]: the IC50 was greater than 10000 nM in data set [4], less than 100 nM on CaMKK2 and 100 to 1000 nM in data set [3].

With `O=C(O)c1ccc(-c2ccnc3cc(-c4ccccc4)nn23)cc1C1CCCC1` [Example 2.2, 2-Cyclopentyl-4-(2-phenylpyrazolo[1,5-a]pyrimidin-7-yl)benzoic Acid], the results for the IC50 (in [4]; on CaMKK2; in data set [3]) were greater than 10000 nM, less than 100 nM and 100 to 1000 nM, respectively.

As for `O=C(O)c1ccc(-c2ccnc3cn(-c4cccc(Cl)c4)nc23)cc1C1CCCC1` [Example 3.6, 4-(2-(3-Chlorophenyl)-2H-pyrazolo[4,3-b]pyridin-7-yl)-2-cyclopentylbenzoic Acid], the IC50 in data set [4] was greater than 10000 nM; at CaMKK2, less than 100 nM; in data set [3], 100 to 1000 nM.

For `O=C(O)c1ccc(-n2ccc3ncc(C4CC4)nc32)cc1C1CCCC1` [Example 18, 2-Cyclopentyl-4-(3-cyclopropyl-5H-pyrrolo[2,3-b]pyrazin-5-yl)benzoic Acid], the IC50 was greater than 10000 nM in data set [4], less than 100 nM on CaMKK2 and 100 to 1000 nM in data set [3].

On to `O=C(O)c1ccc(-c2c(F)cnc3cn(-c4ccc(F)cc4)nc23)cc1C1CCCC1` [Example 3.5, 2-Cyclopentyl-4-(6-fluoro-2-(4-fluorophenyl)-2H-pyrazolo[4,3-b]pyridin-7-yl)benzoic Acid], for which the results for the IC50 (in data set [4]; at CaMKK2; in data set [3]) were greater than 10000 nM, less than 100 nM and 100 to 1000 nM, respectively.

Turning to `CCOc1ccc2c(-c3ccc(C(=O)O)c(C4CCCC4)c3)ccnc2c1` [Example 5.3, 2-cyclopentyl-4-(7-ethoxyquinolin-4-yl)benzoic acid], the fraction unbound in “PPB, human (h)” was less than 0.01; in “PPB, mouse (m)”, less than 0.01. Also, the “Microsomes (m) CYP/UGT60” value in data set [1] is listed as “CYP/UGT60: 66, %”. Besides, the IC50 at CaMKK2 (Table 8) turned out to be 1.5 nM; against CaMKK1, 1.7 nM. Moreover, in “PK”, the bioavailability amounted to 58%. Further, the concentration for a half-maximal effect (EC50) was found to be 30 nM with pAMPK in A427 and 60 nM in data set [3]. Also, the “Microsomes (h) CYP/UGT60” value in [2] was found to be 67%. Further, the “Kinase Selectivity KSP (72)” value in the data set on KSP (72) kinases is reported as 6 of 72 @.

Take `CCNc1cc(-n2ccc3ncc(-c4ccc(F)cc4F)nc32)ccc1C(=O)O` [Example 9, 4-(3-(2,4-Difluorophenyl)-5H-pyrrolo[2,3-b]pyrazin-5-yl)-2-(ethylamino)benzoic Acid]: the figures for the IC50 (in data set [4]; at CaMKK2; in data set [3]) were greater than 10000 nM, less than 100 nM and 100 to 1000 nM, respectively.

On to `O=C(O)c1ccc(-n2ccc3ncc(-c4cccc(C5CC5)c4)nc32)cc1C1CCCC1` [Example 2, 2-Cyclopentyl-4-[3-(3-cyclopropylphenyl)pyrrolo[2,3-b]pyrazin-5-yl]benzoic Acid], for which the IC50 was greater than 10000 nM in data set [4], less than 100 nM at CaMKK2 and less than 100 nM in data set [3].

As for `O=C(O)c1ccc(-c2c(F)cnc3cn(-c4cc(F)cc(F)c4)nc23)cc1C1CCCC1` [Example 3.12, 2-Cyclopentyl-4-(2-(3,5-difluorophenyl)-6-fluoro-2H-pyrazolo[4,3-b]pyridin-7-yl)benzoic Acid], the IC50 was greater than 10000 nM in data set [4], less than 100 nM on CaMKK2 and 100 to 1000 nM in data set [3].

As to `COc1cc(F)cc(-n2cc3ncc(F)c(-c4ccc(C(=O)O)c(C5CCCC5)c4)c3n2)c1` [Example 3.17, 2-Cyclopentyl-4-(6-fluoro-2-(3-fluoro-5-methoxyphenyl)-2H-pyrazolo[4,3-b]pyridin-7-yl)benzoic Acid], the values for the IC50 (in data set [4]; on CaMKK2; in data set [3]) were greater than 10000 nM, less than 100 nM and 100 to 1000 nM, respectively.

With `Cc1cc(C)cc(-c2cnc3ccn(-c4ccc(C(=O)O)c(OC5CNC5)c4)c3n2)c1` [Example 24, 2-(azetidin-3-yloxy)-4-(3-(3,5-dimethylphenyl)-5H-pyrrolo[2,3-b]pyrazin-5-yl)benzoic Acid], the IC50 in [4] is greater than 10000 nM; at CaMKK2, 100 to 1000 nM; in [3] it was less than 100 nM.
